The assay deals with P388 leukemia ip, CD2F1 mice, survival T/C. Kind of assay: NCI In Vivo Anticancer Drug Screen. Data for tumor model P388 Leukemia (intraperitoneal) in CD2F1 (CDF1) mice. The conditions noted are these: endpoint: median survival time, higher = longer survival. Summed up: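 Mice carrying the transplanted tumor received test compound or vehicle. Survival was recorded in each group, and the value is the treated-group measurement divided by that of the vehicle-treated control group.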

Setting [1] is: dose: 50.0 mg/kg/injection, schedule: Q01DX005 (ip), vehicle: saline with Tween-80.
[2] abbreviates: dose: 100.0 mg/kg/injection, schedule: Q01DX005 (ip), vehicle: saline with Tween-80.
Setting [3] is: dose: 200.0 mg/kg/injection, schedule: Q01DX005 (ip), vehicle: saline with Tween-80.
[4] abbreviates: dose: 6.25 mg/kg/injection, schedule: Q01DX009 (ip), vehicle: saline with Tween-80.
Setting [5] is: dose: 12.5 mg/kg/injection, schedule: Q01DX009 (ip), vehicle: saline with Tween-80.
[6] abbreviates: dose: 25.0 mg/kg/injection, schedule: Q01DX009 (ip), vehicle: saline with Tween-80.

“And” between values parts separate entries of the source, which are not always exact repeats. Identical values can stand only once. Toxic doses and inconclusive results are not listed.

For the compound `CC1N(C)c2cc([N+](=O)[O-])ccc2C1(C)C` (centres undefined), the T/C runs as follows: under setting [1], 95 % of control; under setting [2], 100 % of control; under setting [3], 87 % of control.

As to `C=C(C)C(=O)OC1CC2=CC(CC3(C)OC3C3OC(=O)C(=C)C13)OC2=O` (centres undefined), the T/C runs as follows: (dose: 2.25 mg/kg/injection, schedule: Q01DX009 (ip), vehicle: Klucel (hydroxypropylcellulose) (HPC)) 100 % of control; (dose: 2.3 mg/kg/injection, schedule: Q01DX009 (ip), vehicle: Klucel (hydroxypropylcellulose) (HPC)) 103 % of control; (dose: 4.5 mg/kg/injection, schedule: Q01DX009 (ip), vehicle: Klucel (hydroxypropylcellulose) (HPC)) 100 % of control and 97 % of control; (dose: 9.0 mg/kg/injection, schedule: Q01DX009 (ip), vehicle: Klucel (hydroxypropylcellulose) (HPC)) 100 % of control and 111 % of control; (dose: 18.0 mg/kg/injection, schedule: Q01DX009 (ip), vehicle: Klucel (hydroxypropylcellulose) (HPC)) 114 % of control and 115 % of control.

On to `COC(=O)C1=C/CCCN(C=O)/C=C\1C(=O)OC`, for which the T/C was 103 % of control (dose: 100.0 mg/kg/injection, schedule: Q04DX003 (ip), vehicle: alcohol); 103 % of control (dose: 200.0 mg/kg/injection, schedule: Q04DX003 (ip), vehicle: alcohol); 103 % of control (dose: 400.0 mg/kg/injection, schedule: Q04DX003 (ip), vehicle: alcohol).

For the compound `CC(C)=CCC(O)C1=CC(=O)c2c(O)ccc(O)c2C1=O` (centres undefined), the T/C reads like this: (dose: 0.5 mg/kg/injection, schedule: Q01DX009 (ip), vehicle: saline with Tween-80) 102 % of control; (dose: 1.0 mg/kg/injection, schedule: Q01DX009 (ip), vehicle: saline with Tween-80) 110 % of control; (dose: 1.25 mg/kg/injection, schedule: Q01DX009 (ip), vehicle: Klucel (hydroxypropylcellulose) (HPC)) 107 % of control and 109 % of control and 110 % of control; (dose: 2.0 mg/kg/injection, schedule: Q01DX009 (ip), vehicle: saline with Tween-80) 110 % of control; (dose: 2.5 mg/kg/injection, schedule: Q01DX009 (ip), vehicle: Klucel (hydroxypropylcellulose) (HPC)) 107 % of control and 108 % of control and 112 % of control; (dose: 2.5 mg/kg/injection, schedule: Q01DX009 (ip), vehicle: saline with Tween-80) 102 % of control. Besides, the T/C is 117 % of control and 120 % of control (dose: 5.0 mg/kg/injection, schedule: Q01DX009 (ip), vehicle: Klucel (hydroxypropylcellulose) (HPC)); 108 % of control (dose: 5.0 mg/kg/injection, schedule: Q01DX009 (ip), vehicle: saline with Tween-80); 110 % of control and 120 % of control (dose: 10.0 mg/kg/injection, schedule: Q01DX009 (ip), vehicle: Klucel (hydroxypropylcellulose) (HPC)); 100 % of control (dose: 15.0 mg/kg/injection, schedule: Q01DX009 (ip), vehicle: saline with Tween-80); 100 % of control (dose: 15.0 mg/kg/injection, schedule: Q04DX003 (ip), vehicle: saline with Tween-80); 90 % of control (dose: 30.0 mg/kg/injection, schedule: Q01DX009 (ip), vehicle: saline with Tween-80). In addition, the T/C (dose: 30.0 mg/kg/injection, schedule: Q04DX003 (ip), vehicle: saline with Tween-80) was 109 % of control; the T/C under setting [1] is 97 % of control; the T/C under setting [2] was 91 % of control; the T/C under setting [3] is 99 % of control.

As to `COC1C(Cl)CC(/C(=C\C2CCCCC2)C(=O)O)CC1Cl` (centres undefined), the T/C was 100 % of control under setting [1], 103 % of control under setting [2] and 101 % of control under setting [3].

On to `CC(=O)OCN(C)N=Nc1ccc(C#N)cc1`, for which the T/C was 104 % of control (dose: 60.0 mg/kg/injection, schedule: Q01DX005 (ip), vehicle: Klucel (hydroxypropylcellulose) (HPC)) and 108 % of control (dose: 120.0 mg/kg/injection, schedule: Q01DX005 (ip), vehicle: Klucel (hydroxypropylcellulose) (HPC)).

Turning to `O=C1C(Br)=CC(=NCl)C=C1Br`, the T/C is 101 % of control and 88 % of control (dose: 3.13 mg/kg/injection, schedule: Q01DX009 (ip), vehicle: Klucel (hydroxypropylcellulose) (HPC)); 101 % of control (dose: 6.25 mg/kg/injection, schedule: Q01DX009 (ip), vehicle: Klucel (hydroxypropylcellulose) (HPC)); 93 % of control under setting [4]; 105 % of control and 94 % of control (dose: 12.5 mg/kg/injection, schedule: Q01DX009 (ip), vehicle: Klucel (hydroxypropylcellulose) (HPC)); 88 % of control under setting [5]; 90 % of control under setting [6].

Turning to `C[CH2][Sn]1([CH2]C)[O]C2C(O)OC(CO)C(O)C2[O]1` (centres undefined), the T/C (dose: 1.56 mg/kg/injection, schedule: Q04DX003 (ip), vehicle: saline) is 107 % of control and 120 % of control; the T/C (dose: 3.12 mg/kg/injection, schedule: Q04DX003 (ip), vehicle: saline) was 107 % of control and 120 % of control; the T/C (dose: 6.25 mg/kg/injection, schedule: Q04DX003 (ip), vehicle: saline) was 114 % of control; the T/C (dose: 12.5 mg/kg/injection, schedule: Q04DX003 (ip), vehicle: saline) was 116 % of control.

`O=C1C=C[C@H](O)[C@@]2(CO)O[C@@H]12`: the T/C was 103 % of control (dose: 1.25 mg/kg/injection, schedule: Q04DX002 (ip), vehicle: saline); 114 % of control (dose: 2.5 mg/kg/injection, schedule: Q04DX002 (ip), vehicle: saline with Tween-80); 104 % of control (dose: 2.5 mg/kg/injection, schedule: Q04DX002 (ip), vehicle: saline).

For the compound `C=CCN(CC=C)c1nc(N)c2cc(OC)c(OC)cc2n1`, the T/C runs as follows: (dose: 37.5 mg/kg/injection, schedule: Q01DX009 (ip), vehicle: suspension in saline) 100 % of control; (dose: 75.0 mg/kg/injection, schedule: Q01DX009 (ip), vehicle: suspension in saline) 106 % of control.

Turning to `CCN(CC)CC(=O)O[C@]1(CC)C(=O)OCc2c1cc1n(c2=O)Cc2cc3ccccc3nc2-1`, the T/C is, setting by setting: (dose: 0.5 mg/kg/injection, schedule: Q01DX005 (ip), vehicle: water) 110 % of control; (dose: 1.0 mg/kg/injection, schedule: Q01DX005 (ip), vehicle: water) 115 % of control; (dose: 2.0 mg/kg/injection, schedule: Q01DX005 (ip), vehicle: water) 115 % of control; (dose: 8.0 mg/kg/injection, schedule: Q01DX005 (ip), vehicle: water) 161 % of control and 163 % of control.

Regarding `Cn1c(=O)[nH]c(Sc2ccccc2)c(C=O)c1=O`, the T/C by setting is: (dose: 100.0 mg/kg/injection, schedule: Q01DX001 (ip), vehicle: saline with Tween-80) 104 % of control; (dose: 200.0 mg/kg/injection, schedule: Q01DX001 (ip), vehicle: saline with Tween-80) 101 % of control.

For the compound `N=C(N)c1ccc(NC(=O)c2ccc(C(=O)Nc3ccc(C(=N)N)cc3)c(N)c2)cc1`, the T/C was 110 % of control under setting [1], 107 % of control under setting [2] and 87 % of control under setting [3].

Turning to `CCN1CC2c3cc(OC)c(OC)cc3CC(c3ccccc3)C2C1` (centres undefined), the T/C under setting [4] is 120 % of control, the T/C under setting [5] is 120 % of control and the T/C under setting [6] is 100 % of control.

In the case of `C[S+](C)CCCNC(=O)c1csc(-c2cscn2)n1`, the T/C runs as follows: (dose: 6.25 mg/kg/injection, schedule: Q01DX005 (ip), vehicle: water) 101 % of control; (dose: 12.5 mg/kg/injection, schedule: Q01DX005 (ip), vehicle: water) 96 % of control; (dose: 25.0 mg/kg/injection, schedule: Q01DX005 (ip), vehicle: water) 101 % of control.

With `O=Nc1c2ccccc2c(NO)c2ccccc12`, the T/C reads like this: (dose: 100.0 mg/kg/injection, schedule: Q04DX002 (ip), vehicle: saline with Tween-80) 94 % of control; (dose: 200.0 mg/kg/injection, schedule: Q04DX002 (ip), vehicle: saline with Tween-80) 92 % of control; (dose: 400.0 mg/kg/injection, schedule: Q04DX002 (ip), vehicle: saline with Tween-80) 98 % of control.

As to `C/[N+]([O-])=C1\C(C2COC(C)(C)O2)OC2OC(C)(C)OC12` (centres undefined), the T/C (dose: 100.0 mg/kg/injection, schedule: Q04DX002 (ip), vehicle: saline) was 97 % of control; the T/C (dose: 200.0 mg/kg/injection, schedule: Q04DX002 (ip), vehicle: saline) was 107 % of control; the T/C (dose: 400.0 mg/kg/injection, schedule: Q04DX002 (ip), vehicle: saline) was 105 % of control.

Consider `COc1c(OC)c2oc(=O)c3cc4c(c5oc(=O)c(c1OC)c2c53)OCO4`, for which the T/C is 88 % of control (dose: 1.75 mg/kg/injection, schedule: Q01DX005 (ip), vehicle: other); 86 % of control (dose: 3.5 mg/kg/injection, schedule: Q01DX005 (ip), vehicle: other); 86 % of control (dose: 7.0 mg/kg/injection, schedule: Q01DX005 (ip), vehicle: other).

Turning to `COC(=O)C1(C#N)CC1`, the T/C is, setting by setting: (dose: 60.0 mg/kg/injection, schedule: Q01DX005 (ip), vehicle: saline) 113 % of control; (dose: 120.0 mg/kg/injection, schedule: Q01DX005 (ip), vehicle: saline) 96 % of control; (dose: 240.0 mg/kg/injection, schedule: Q01DX005 (ip), vehicle: saline) 103 % of control.

Source of the values: PubChem BioAssay AID330 (DTP/NCI, 2004).
